One series has as its target T1, human DP2 receptor (Homo sapiens, UniProt Q9Y5Y4).
T1 construct: expressed in transfected cells
T1 sequence (Q9Y5Y4 1-395): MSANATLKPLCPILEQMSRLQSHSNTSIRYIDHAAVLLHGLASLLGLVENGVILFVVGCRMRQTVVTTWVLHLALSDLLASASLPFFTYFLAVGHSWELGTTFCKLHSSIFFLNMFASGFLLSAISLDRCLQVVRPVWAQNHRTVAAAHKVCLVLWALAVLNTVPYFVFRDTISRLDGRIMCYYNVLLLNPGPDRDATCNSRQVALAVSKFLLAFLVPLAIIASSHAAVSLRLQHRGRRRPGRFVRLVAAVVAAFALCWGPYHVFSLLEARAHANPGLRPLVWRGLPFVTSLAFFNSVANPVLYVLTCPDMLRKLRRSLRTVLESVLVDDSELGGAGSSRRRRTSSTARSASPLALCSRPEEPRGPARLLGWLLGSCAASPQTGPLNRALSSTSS
Briefly: DP2/CRTH2 radioligand binding assay using [3H]PGD2. The following applies: membranes of HEK293 cells expressing recombinant human DP2, 1 nM [3H]PGD2; read-out: hDP2. Here is the method: The ability of a compound to bind to the human DP2 receptor is assessed via a radioligand binding assay using [^3H]PGD2. HEK293 cells stably expressing recombinant human DP2 are resuspended in 10 mM Hepes, 7.4 containing 1 mM DTT, lysed and centrifuged at 75,000×g to pellet the membranes. The membranes are resuspended in 10 mM Hepes, 7.4 containing 1 mM DTT and 10% glycerol to approximately 5 mg protein/ml. Membranes (2-10 μg protein/well) are incubated in 96-well plates with 1 nM [^3H]PGD2 and test compound in Assay Buffer (50 mM Hepes, 10 mM MnCl2, 1 mM EDTA, plus or minus 0.2% human serum albumin, pH 7.4) for 60 minutes at room temperature. The reactions are terminated by rapid filtration through Whatman GF/C glass fibre filter plates. The filter plates were pre-soaked in 0.33% polyethylenimine for 30 minutes at room temperature then washed in Wash Buffer (50 mM Hepes, 0.5 M NaCl pH 7.4) prior to harvesting. After harvesting, the filter plates are washed 3 times with 1 ml cold Wash Buffer then dried. Scintillant is then added to the plates and the radioactivity retained on the filters is determined on a Packard TopCount (Perkin Elmer). Specific binding is determined as total radioactive binding minus non-specific binding in the presence of 10 μM PGD2. IC50s were determined using GraphPad prism analysis of drug titration curves.

Series [1] is described as follows: Plasma concentrations of the compound in mice of the allergic rhinitis model. The format is in vivo. The settings on record: female, BALB/c, mouse, 10 mg/kg as the sodium salt, oral. Here is the method: The compounds ability to inhibit allergen-induced sneezing and nasal rubbing is assessed using a mouse model of allergic rhinitis. Methods were adapted from those detailed in Nakaya, M., et al. 2006, Laboratory Investigation, 86:917-926. Female BALB/c mice (20-25 g) are immunized by an intraperitoneal injection (i.p.) of 10 μg ovalbumin (OVA) complexed with alum in a volume 0.2 mL on days 0 and 7. Fourteen days later (day 21) mice are challenged intranasally with 20 μl of a 10 mg/mL solution of OVA. The challenge period occurs daily from days 21 to day 23. Mice (5-7/group) are randomly assigned to receive either compound or vehicle and are treated by oral gavage 1 hour prior to OVA challenge. The number of sneezes and nasal rubs are counted by an independent blinded observe during a period of 8 minutes immediately following OVA challenge on days 21, 23 and […]. A significant increase in allergen-induced sneezing and nasal rubbing occurs over the 3-day challenge period. Inhibition of this effect by select compounds is determined statistically using Graphpad prism.

A value given as a limit tells only on which side of the number the result lay.

As a reminder, the Cmax is the maximum level reached in the sampled fluid or tissue.

As for `O=C(O)CCn1c2c(c3ccccc31)C[C@H](NS(=O)(=O)c1ccc(F)cc1)CC2` [Ramatroban], the IC50 at human DP2 receptor was more than 0.1 µM.

Regarding `CN(C1CCc2c(c3ncccc3n2CC(=O)O)C1)S(=O)(=O)c1ccc(F)cc1` (racemic) [Compound 2, {8-[(4-fluoro-benzenesulfonyl)-methyl-amino]-6,7,8,9-tetrahydro-pyrido[3,2-b]indol-5-yl}-acetic acid], in series [1], the Cmax was 0.77 µM. For the same compound, in series [1] (at 8 hours, read-out: Plasma Cmin at 8 hours), the concentration at 8 h is 0.12 µM.

These data come from patent US8034826B2, “Cycloalkane[B]azaindole antagonists of prostaglandin D2 receptors” (Panmira Pharmaceuticals, LLC, priority 2008, dated 2011).
